Results from paper PMC8962522, “Direct interaction of TrkA/CD44v3 is essential for NGF-promoted aggressiveness of breast cancer cells” (Journal of Experimental & Clinical Cancer Research : CR, 2022).
Entries after “also recorded” stand apart in the source; their conditions may differ.

What was measured:
[1] = system: TrkA/CD44v3 complex in COS-7 cells expressing TrkA and CD44v3; assay: PLA TrkA/CD44v3 complex formation in COS-7 cells; format: cell-based, African green monkey (COS-7 cells); conditions: COS-7 expressing TrkA and CD44v3; NGF 100 ng/ml, 0, 5 and 30 min; 30 fields per condition, three experiments
Procedure: Cells (10,000 cells per well) were grown on acid-washed eight-well glass slides (Thermo Scientific) in the appropriate medium supplemented with 10% FBS for 24 h. After NGF treatment, paraformaldehyde (PAF)-fixed cells were incubated with 4% bovine serum albumin (BSA) or 5% FBS (for 1 h at 20 °C), followed by overnight incubation with primary antibodies (rabbit anti-TrkA or rabbit anti-IgG + mouse anti-pan-CD44; mouse anti-CD44v3; mouse anti-CD44v6; mouse anti-IgG2a; mouse anti-IgG2b; or mouse anti-IgG1). PLA was performed following the manufacturer’s instructions in the assay kit (Duolink PLA; Sigma–Aldrich). To obtain the correct representation of the PLA signal for each condition, 30 fields per condition were observed using a fluorescence microscope (Eclipse TiU; Nikon, Japan). The PLA signals (red dots) were automatically quantified using ImageJ software (with an in-house-developed plug-in). After PLA, statistical analyses were performed using GraphPad Prism software to determine the mean dot intensity in the cells.
Fig. 1 The C-terminal region of CD44 variant 3 binds to TrkA. A Schematic representation of the CD44 gene and protein structure. Alternative splicing leads to the expression of CD44 variants, thus the insertion of exon 8 leads to the expression of a CD44 protein containing variant 3 (CD44v3) and the insertion of exon 11 leads to the expression of a CD44 containing variant 6 (CD44v6) (B) TrkA/CD44v3 complex formation in COS-7 cells expressing TrkA and CD44v3 was detected by the proximity ligation assay (PLA), which was performed 0, 5 and 30 min after the initiation of NGF (100 ng/ml) treatment. The images represent signals detected by PLA. Quantification of the red spots was performed by ImageJ software (30 randomly chosen fields per condition of three different experiments). Statistical analyses were performed using one-way ANOVA followed by Bonferroni’s posttest. Error bars represent the standard error of the mean (S.E.M.); *** p < 0.001. ns, nonsignificant. C NGF and/or TrkA binding to CD44v3 was measured by microscale thermophoresis (MST). MST experiments were performed on whole cell extracts of COS-7 cells expressing CD44v3. […]
Fig. 2 The C-terminal region of CD44v3 and the His112 residue of TrkA are involved in the CD44v3/TrkA interaction. TrkA/CD44v3 complex association was detected by the proximity ligation assay (PLA) in wild-type TrkA- or TrkA_H112A- and CD44v3-expressing COS-7 cells. […] Representative images of signals detected by PLA (A) and their quantification (B). […] TrkA/CD44v3 complex association was detected by PLA in wild-type TrkA and CD44v3 wild type or CD44v3 deleted mutant Δ3 or Δ4 expressing COS-7 (D, E). […] Quantification of PLA was performed using ImageJ software (30 fields per condition of three different experiments). […]

MDA-MB-231 cells = assay: Scratch/wound migration assay, MDA-MB-231; format: cell-based; conditions: peptide 50 ng/mL 30 min before NGF 100 ng/ml; 24 h, 0.1% FBS; siCD44v3 24 h after treatment
Procedure: Scratch/wound migration assays were performed using inserts (Ibidi, Germany). MDA-MB-231 cells (4 × 10^5 cells/mL) were seeded onto each side of the chamber and incubated overnight at 37 °C until they reached the subconfluent stage. Next, the inserts were removed, and the cells were rinsed and starved (1 mL of 0.1% FBS medium for 1 h). Images of the initial wound were obtained using an inverted microscope, and the cells were incubated with or without the peptide (scramble or P4; 50 ng/mL) for 30 min and stimulated with NGF (100 ng/ml). After 24 h, images (2/wound) were obtained of the same place on the wound as those initially taken. The distance between the 2 migration fronts was measured using ImageJ software.
Fig. 4 CD44v3 mimetic peptide 4 inhibits MDA-MB-231 breast cancer cell growth and migration/invasion. Clonogenic MDA-MB-231 cell growth was measured after 10 days in the presence of a scramble peptide (SP) or CD44v3 mimetic peptide (P4) (A, B). The elongation factor (length-to-width ratio) was assessed after 10 days in the presence or absence of NGF (C, D, E). Migration assays were performed using Ibidi devices 24 h after treatment (H, I). Invasion through collagen 1 was measured by the Transwell assay 16 h after treatment (J, K). Statistical analyses were performed using one-way ANOVA followed by Bonferroni’s posttest. […]

Substance: IDDDEDFISST [Peptide 4, mimetic peptide 4 (…) corresponding to the C-terminal region of CD44v3]
- effect on TrkA/CD44v3 complex formation (PLA) in COS-7 cells [1]: could decrease NGF-induced TrkA/CD44v3 complex formation in COS-7 cells
- effect on migration (wound closure) of MDA-MB-231 cells (MDA-MB-231 cells): completely blocked NGF-dependent wound closure

Substance: NGF: recombinant human β-NGF (Alomone Labs, Israel)
- effect on TrkA/CD44v3 complex formation (PLA) in COS-7 cells [1]: increased the PLA-detected TrkA/CD44v3 signal in the plasma membrane of COS-7 cells following NGF stimulation; also recorded: transient and decreased 30 min after NGF stimulation
- effect on migration (wound closure) of MDA-MB-231 cells (MDA-MB-231 cells): the migration of MDA-MB-231 cells was increased, as indicated by complete wound closure 24 h after treatment
